Measurements as given in patent US4582827A, “Pesticidal diphenylaziridines” (priority 1983, dated 1986).

How the values were obtained:
[1] = test system: tobacco hornworm (Manduca sexta) larvae; experiment: Tobacco hornworm growth and developmental responses to feeding on diets containing the compounds; assay type: in vivo; conditions: for oral activity: diet, Example 2; for larval mortality (acute toxicity): in 24-72 hours
Protocol: The compounds produced and described in Example 1 were then tested for pesticidal activity against the tobacco hornworm (Manduca sexta). The screening procedure for these tests began with the larval stage and continued through the pupal and adult stages and finally evaluated egg production. The studies thus permitted the evaluation of the effects of the compounds over several subsequent developmental stages in the total life cycle of the insect, giving estimates of acute toxicity (insecticidalor larvicidal activity) as well as prolonged or delayed effects on development (growth regulation) and reproduction (chemosterilization). The latter are of special importance in conjunction with the integrated pest management approach to insect control.
The test compounds were incorporated into the artificial diet of tobacco hornworm larvae and their subsequent growth and developmental responses were monitored using the following parameters: larval mortality including determination of LD50 values, rate of larval development and weight gain, percent pupation, pupal weight and degree of deformities, percent adult emergence and measures of reproductive capacity such as the number of developed ooctyes, fecundity and fertility. The protocol for the screening tests has been developed over a number of years by Dahlman et al., Comp. Biochem. Physiol. 51A, 33, (1975); Comp. Biochem. Physiol., 52A, 105 (1975); Ent. Exp. et Appl., 22, 123 (1977); Palumbo and D. L. Dahlman, J. Econ. Entomol. 71, 674 (1978); D. L. Dahlman, Ent. Exp. et Appl., 24, 327 (1978).
Each treatment used 15 newly ecdysed fifth-instar larvae. Death of larvae within a few hours to several days of initial exposure was considered to be acute toxicity. However, the compounds may reduce the maximum size attained by larvae and/or may retard growth so that larvae require additional time to attain their maximum size. Developmental parameters subsequent to the feeding stage also may be affected. […] Mortality may occur in the pupal stage or emerging adults may have wrinkled wings or other deformities. The number of eggs produced by treated females may be reduced and/or unfertile. Although acute toxicity is desirable in the control of any insect, the delayed effects which result in poor survival and reduced reproductive capacity are significant factors in the long-range program of pest management systems.
Continuous cultures of M. sexta are maintained according to the procedures of Yamamoto, J. Econ. Entomol., 62, p. 1427 (1969). Ingredients of the diet formulation include sugar, casein, wheat germ oil, cholesterol, salt mixture, yeast, vitamins, antioxidants and fungal inhibitors, such as ascorbic acid, sorbic acid, formaldehyde and methyl-p-benzoate. All are incorporated into a liquid agar base which, when poured into holding pans, solidifies to form an adequate substrate upon which the insect larvae feed. Nearly any test material can be uniformly incorporated into such a diet. Thus, exposure to experimental compounds can be evaluated during all or any part of the larval stage. In addition, chronic or long-term effects in subsequent life stages can also be monitored.
The results from these studies, in which the 1,2-diphenylaziridines of Example 1 were incorporated singly into the diet of M. sexta at a concentration of 5 mM are presented in the following Table I.

[2] = test system: tobacco hornworm larvae (newly ecdysed fifth-instar); experiment: Topical application to tobacco hornworm larvae; assay type: in vivo, Manduca sexta
Protocol: The test compounds were dissolved either in acetone or hexane and applied to the integument of the test insect with a micro applicator. Newly ecdysed fifth-instar tobacco hornworm larvae weighing between 1-1.5 g were used and toxicity data were obtained in the same way as previously described.

H. virescens = experiment: Incorporation into H. virescens diet; assay type: in vivo, Heliothis virescens; conditions: as much as 20 mM in diet
Protocol: Compounds 1, 10, 11, 13 and 14 were incorporated into H. virescens diet in the same manner as M. Sexta. Diets containing as much as 20 mM of each compound had little effect on larval development time, pupal weight or time to adult emergence.

[3] = test system: Salmonella typhimurium strains TA 98, TA 100, TA 1535, TA 1537, TA 1538, TA 1978; experiment: Ames assay (spot test), revertant colonies; assay type: cell-based; conditions: for Mean number of revertant colonies per plate, TA 98 +S9: strain TA 98, +S9; for Mean number of revertant colonies per plate, TA 98 -S9: strain TA 98, -S9; for Mean number of revertant colonies per plate, TA 100 +S9: strain TA 100, +S9; for Mean number of revertant colonies per plate, TA 100 -S9: strain TA 100, -S9; for Mean number of revertant colonies per plate, TA 1535 +S9: strain TA 1535, +S9; for Mean number of revertant colonies per plate, TA 1535 -S9: strain TA 1535, -S9; for Mean number of revertant colonies per plate, TA 1537 +S9: strain TA 1537, +S9; for Mean number of revertant colonies per plate, TA 1537 -S9: strain TA 1537, -S9; for Mean number of revertant colonies per plate, TA 1538 +S9: strain TA 1538, +S9; for Mean number of revertant colonies per plate, TA 1538 -S9: strain TA 1538, -S9; for Mean number of revertant colonies per plate, TA 1978 +S9: strain TA 1978, +S9; for Mean number of revertant colonies per plate, TA 1978 -S9: strain TA 1978, -S9
Protocol: This means that aziridine compounds, 1, 10, or 11, will not cause mutations in DNA arising from potential changes in frame shift and/or base pairing. Compounds 1, 10 and 11 were tested for mutagenic properties using the following experimental procedure.
Potential mutagenic and carcinogenic properties of the compounds were evaluated with standard Ames assay procedures (Ames et al, "Mutation Res.", 31, p. 347, 1975). This assay used strains of Salmonella typhimurium selected for sensitivity and specificity in being reverted from a histidine requirement back to prototrophy by a wide variety of mutagens. Potential changes in frameshift were evaluated using strains TA 98, TA 1537 and TA 1538, while changes in base pairing were detected using strains TA 100 and TA 1535. In addition, strain TA 1978 was used, in combination with TA 1538, to evaluate whether the agent killed bacteria by damage to DNA that could be repaired by this strain. Initially, the compounds were screened using the spot test, in which 1000 μgm of material dissolved in 10 μl of DNSO was applied to the middle of the plate.
Dose-response tests were not performed because the results were negative. All the tests were carried out in the presence and absence of an S9 rat liver preparation and contained a positive control (2-acetylaminofluorene,AAF) and a negative control (DMSO).

Clc1ccccc1C1CN1c1ccc(Br)cc1 (centres unmarked) [Compound 1]
% Adult Emergence ([1]; 1 mM in diet): 100%
% Adults ([1]; 1 mM in diet): 100%
% Malformed Adults ([1]; 1 mM in diet): 0%
% Pupation ([1]; 1 mM in diet): 100%
Days to Max Wt ([1]; 1 mM in diet): 5.8 ± .2 days
Max Larval Wt ([1]; 1 mM in diet): 7.94 g
Mean No. of Eggs ([1]; 1 mM in diet): 32 ± 9
No. of female Adults ([1]; 1 mM in diet): 10
Total No. of Adults ([1]; 1 mM in diet): 15
larval weight ([1]; 1 mM in diet): a slight reduction in larval weight
mean number of eggs ([1]; 1 mM in diet, relative to controls): only half that of the controls
% Adult Emergence ([1]; 2.5 mM in diet): 100%
% Adults ([1]; 2.5 mM in diet): 27%
% Malformed Adults ([1]; 2.5 mM in diet): 50%
% Pupation ([1]; 2.5 mM in diet): 27%
Days to Max Wt ([1]; 2.5 mM in diet): 6.2 ± 0.7 days
Max Larval Wt ([1]; 2.5 mM in diet): 4.99 g
Mean No. of Eggs ([1]; 2.5 mM in diet): 8 ± 9
No. of female Adults ([1]; 2.5 mM in diet): 2
Total No. of Adults ([1]; 2.5 mM in diet): 4
malformed adults ([1]; 2.5 mM in diet): a large percentage
maximum larval weight and mean number of eggs ([1]; 2.5 mM in diet): reduced maximum larval weight and the mean number of eggs
percent pupation ([1]; 2.5 mM in diet): lowered the percent pupation
larval death (words in table) ([1]; 5 mM in diet): ALL DEAD BY SECOND DAY OF FEEDING
larval mortality ([1]; 5 mM in diet): all or nearly all larvae died
symptoms of larvae ([1]; 5 mM in diet): extreme agitation of larvae, oral and anal expulsion of fluids and ultimately, death
time until all larvae dead ([1]; 5 mM in diet): ≥ 48 h
oral activity [1]: good oral activity
larval mortality (acute toxicity) ([1]; summary of Tables I and II): 100%
time to 100% larval mortality ([1]; summary of Tables I and II): 24 to 72 h
larvae killed ([2]; 1000 μg/larva (800 ppm), within 48 hr): 70%
developmental effects ([2]; 400 ppm topical): delayed larval development, reduced maximum size and the number of resulting eggs
effect on larval development time, pupal weight or time to adult emergence (H. virescens): little effect
Mean number of revertant colonies per plate, TA 98 +S9 [3]: 44.0 colonies per plate
Mean number of revertant colonies per plate, TA 98 -S9 [3]: 32.7 colonies per plate
Mean number of revertant colonies per plate, TA 100 +S9 [3]: 61.7 colonies per plate
Mean number of revertant colonies per plate, TA 100 -S9 [3]: 25.3 colonies per plate
Mean number of revertant colonies per plate, TA 1535 +S9 [3]: 15.0 colonies per plate
Mean number of revertant colonies per plate, TA 1535 -S9 [3]: 17.3 colonies per plate
Mean number of revertant colonies per plate, TA 1537 +S9 [3]: 13.3 colonies per plate
Mean number of revertant colonies per plate, TA 1537 -S9 [3]: 7.5 colonies per plate
Mean number of revertant colonies per plate, TA 1538 +S9 [3]: 26.7 colonies per plate
Mean number of revertant colonies per plate, TA 1538 -S9 [3]: 12.0 colonies per plate
Mean number of revertant colonies per plate, TA 1978 +S9 [3]: 189.0 colonies per plate
Mean number of revertant colonies per plate, TA 1978 -S9 [3]: 207.3 colonies per plate
mutagenicity ([3]; with and without S9 / mammalian liver enzymes): not mutagenic

CC(=O)Nc1ccc2c(c1)Cc1ccccc1-2 [AAF, 2-acetylaminofluorene, reference compound]
Mean number of revertant colonies per plate, TA 98 +S9 [3]: 284.7 colonies per plate
Mean number of revertant colonies per plate, TA 98 -S9 [3]: 32.7 colonies per plate
Mean number of revertant colonies per plate, TA 100 +S9 [3]: 78.0 colonies per plate
Mean number of revertant colonies per plate, TA 100 -S9 [3]: 25.3 colonies per plate
Mean number of revertant colonies per plate, TA 1535 +S9 [3]: 19.7 colonies per plate
Mean number of revertant colonies per plate, TA 1535 -S9 [3]: 15.7 colonies per plate
Mean number of revertant colonies per plate, TA 1537 +S9 [3]: 14.7 colonies per plate
Mean number of revertant colonies per plate, TA 1537 -S9 [3]: 7.7 colonies per plate
Mean number of revertant colonies per plate, TA 1538 +S9 [3]: 313.7 colonies per plate
Mean number of revertant colonies per plate, TA 1538 -S9 [3]: 14.7 colonies per plate
Mean number of revertant colonies per plate, TA 1978 +S9 [3]: 358.3 colonies per plate
Mean number of revertant colonies per plate, TA 1978 -S9 [3]: 196.3 colonies per plate

FC(F)(F)c1ccc(N2CC2c2ccccc2Cl)cc1 (centres unmarked) [Compound 14]
% Adult Emergence ([1]; 1 mM in diet): 100%
% Adults ([1]; 1 mM in diet): 93%
% Malformed Adults ([1]; 1 mM in diet): 36%
% Pupation ([1]; 1 mM in diet): 93%
Days to Max Wt ([1]; 1 mM in diet): 5.8 ± .1 days
Max Larval Wt ([1]; 1 mM in diet): 9.20 g
Mean No. of Eggs ([1]; 1 mM in diet): 83 ± 13
No. of female Adults ([1]; 1 mM in diet): 9
Total No. of Adults ([1]; 1 mM in diet): 14
% Adult Emergence ([1]; 2.5 mM in diet): 8%
% Adults ([1]; 2.5 mM in diet): 7%
% Malformed Adults ([1]; 2.5 mM in diet): 100%
% Pupation ([1]; 2.5 mM in diet): 93%
Days to Max Wt ([1]; 2.5 mM in diet): 6.6 ± 0.2 days
Max Larval Wt ([1]; 2.5 mM in diet): 8.03 g
Mean No. of Eggs ([1]; 2.5 mM in diet): 0
No. of female Adults ([1]; 2.5 mM in diet): 1
Total No. of Adults ([1]; 2.5 mM in diet): 1
malformed adults ([1]; 2.5 mM in diet): a large percentage
maximum larval weight and mean number of eggs ([1]; 2.5 mM in diet): reduced maximum larval weight and the mean number of eggs
larval death (words in table) ([1]; 5 mM in diet): ALL DEAD WITHIN 3 DAYS
larval mortality ([1]; 5 mM in diet): all or nearly all larvae died
symptoms of larvae ([1]; 5 mM in diet): extreme agitation of larvae, oral and anal expulsion of fluids and ultimately, death
time until all larvae dead ([1]; 5 mM in diet): ≥ 48 h
mortality at 2500 µM ([1]; Manduca sexta, po, 2.5 mM in diet, read-out: pupal mortality): 85%
oral activity [1]: good oral activity
larval mortality (acute toxicity) ([1]; summary of Tables I and II): 100%
pupal mortality ([1]; summary of Tables I and II): caused pupal mortality
time to 100% larval mortality ([1]; summary of Tables I and II): 24 to 72 h
topical effect ([2]; 2000 μg/larvae (1600 ppm)): ineffective
effect on larval development time, pupal weight or time to adult emergence (H. virescens): little effect

O=[N+]([O-])c1cccc(N2CC2c2ccccc2[N+](=O)[O-])c1 (centres unmarked) [Compound 3]
% Adult Emergence ([1]; 5 mM in diet): 80%
% Malformed Adults ([1]; 5 mM in diet): 8%
% Pupation ([1]; 5 mM in diet): 100%
Days to Max Wt ([1]; 5 mM in diet): 5.2 ± .1 days
Max Larval Wt ([1]; 5 mM in diet): 9.21 ± .24 g
Mean No. of Eggs ([1]; 5 mM in diet): 97 ± 14
No. of female Adults ([1]; 5 mM in diet): 9
Total No. of Adults ([1]; 5 mM in diet, all tests began with 15 larvae): 12
effects on tobacco hornworm development ([1]; summary of Tables I and II): had no effect
